Reference: ChEMBL document CHEMBL1201862, “PubChem BioAssay data set” (2004)
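Tested at 5 concentrations; 48 h exposure; 96-well plates; endpoints linearly interpolated, else capped at highest concentration. Here, GI50 denotes the concentration required for 50% inhibition of growth.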 Activity calls are given as the source filed them. Rule as the data show it: active = GI50 up to about 1.1 µM and inactive = higher.

Legend:
Experiment in all cases: growth of human tumour cells (NCI), 48 h
ACHN = test system: ACHN
CAKI-1 = test system: CAKI-1
CCRF-CEM = test system: CCRF-CEM
HCT-15 = test system: HCT-15
MCF7 = test system: MCF7
NCI-H226 = test system: NCI-H226
NCI-H460 = test system: NCI-H460
OVCAR-4 = test system: OVCAR-4
RXF 393 = test system: RXF 393
SN12C = test system: SN12C
SNB-19 = test system: SNB-19
SNB-75 = test system: SNB-75
SW-620 = test system: SW-620
T47D = test system: T47D
UO-31 = test system: UO-31
HCC 2998 = test system: HCC 2998
OVCAR-8 = test system: OVCAR-8
NCI-H522 = test system: NCI-H522
BT-549 = test system: BT-549

SMILES	GI50 (ACHN)	GI50 (CAKI-1)	GI50 (CCRF-CEM)	GI50 (HCT-15) [µM]	GI50 (MCF7)	GI50 (NCI-H226)	GI50 (NCI-H460)	GI50 (OVCAR-4)	GI50 (RXF 393)	GI50 (SN12C)	GI50 (SNB-19)	GI50 (SNB-75)	GI50 (SW-620)	GI50 (T47D)	GI50 (UO-31)	GI50 (HCC 2998)	GI50 (OVCAR-8)	GI50 (NCI-H522)	GI50 (BT-549)
COc1ccc(NC(=O)c2cc(NC(=O)/C=C/c3ccccc3)c(OC)c(OC)c2)cc1	4.5 µM (inactive)	8.73 µM (inactive)	7 µM (inactive)	3.99	3.69 µM (inactive)	6.64 µM (inactive)	11.7 µM (inactive)	53 µM (inactive)	11.2 µM (inactive)	6.3 µM (inactive)	61.1 µM (inactive)	2.26 µM (inactive)	6.81 µM (inactive)	8.91 µM (inactive)	1.98 µM (inactive)				
Nc1ncnc2c1nnn2C1CCC(CP(=O)(O)O)C1 (stereo not drawn)	> 100 µM (inactive)	> 100 µM (inactive)	> 100 µM (inactive)	> 100	> 100 µM (inactive)	> 100 µM (inactive)	> 100 µM (inactive)	> 100 µM (inactive)	> 100 µM (inactive)	> 100 µM (inactive)	> 100 µM (inactive)	> 100 µM (inactive)	> 100 µM (inactive)	> 100 µM (inactive)	> 100 µM (inactive)	> 100 µM (inactive)	> 100 µM (inactive)		
CCOC(=O)C1=C(Nc2ccccc2)SC/C1=N\NC(=O)Cc1ccccc1	> 100 µM (inactive)	> 100 µM (inactive)	> 100 µM (inactive)	> 100		> 100 µM (inactive)	> 100 µM (inactive)	> 100 µM (inactive)	> 100 µM (inactive)	> 100 µM (inactive)	> 100 µM (inactive)	> 100 µM (inactive)	> 100 µM (inactive)		> 100 µM (inactive)	> 100 µM (inactive)	> 100 µM (inactive)	> 100 µM (inactive)	
O=C(CN1CCOCC1)c1ccc2c(c1)oc(=O)n2CCN1CCCCC1	> 100 µM (inactive)	> 100 µM (inactive)	> 100 µM (inactive)	> 100	> 100 µM (inactive)	> 100 µM (inactive)	> 100 µM (inactive)		> 100 µM (inactive)	> 100 µM (inactive)	> 100 µM (inactive)	0.179 µM (active)	> 100 µM (inactive)		> 100 µM (inactive)		> 100 µM (inactive)		> 100 µM (inactive)
CC(=O)NC(NCCN)(c1ccccc1)c1ccccc1	> 100 µM (inactive)		> 100 µM (inactive)	> 100	> 100 µM (inactive)	> 100 µM (inactive)	> 100 µM (inactive)	> 100 µM (inactive)	> 100 µM (inactive)	> 100 µM (inactive)	> 100 µM (inactive)	> 100 µM (inactive)	> 100 µM (inactive)		48 µM (inactive)	> 100 µM (inactive)	> 100 µM (inactive)		
Cc1cccc2c1Oc1cc(Cl)ccc1C2NC(=O)CCN1CCCCC1 (stereo not drawn)			16 µM (inactive)	17.7	17.5 µM (inactive)		16.5 µM (inactive)	15.3 µM (inactive)		17.3 µM (inactive)	17.5 µM (inactive)	14.5 µM (inactive)	17.8 µM (inactive)	13.1 µM (inactive)	15.4 µM (inactive)	15 µM (inactive)	16.3 µM (inactive)	16.9 µM (inactive)	18.7 µM (inactive)
O=C1[C@@H](O)[C@@H]2CCCC[C@@]23CCCN13	> 100 µM (inactive)	> 100 µM (inactive)	> 100 µM (inactive)	> 100	> 100 µM (inactive)	> 100 µM (inactive)	> 100 µM (inactive)	> 100 µM (inactive)	> 100 µM (inactive)	> 100 µM (inactive)	> 100 µM (inactive)	37.6 µM (inactive)		> 100 µM (inactive)	> 100 µM (inactive)	> 100 µM (inactive)	> 100 µM (inactive)	> 100 µM (inactive)	
O=C(Nc1ccc(Sc2ccc(/N=N/c3c(O)c(S(=O)(=O)O)cc4cc(S(=O)(=O)O)ccc34)cc2)cc1)c1ccc(/N=N/c2c(O)ccc3c(S(=O)(=O)O)cc(S(=O)(=O)O)cc23)cc1	29.4 µM (inactive)	43.8 µM (inactive)	24.7 µM (inactive)	27.5		> 100 µM (inactive)	28.1 µM (inactive)	33.8 µM (inactive)	50.6 µM (inactive)	42.2 µM (inactive)	41.1 µM (inactive)	> 100 µM (inactive)	38.5 µM (inactive)		41.2 µM (inactive)	> 100 µM (inactive)	20.8 µM (inactive)	13.4 µM (inactive)	
CCCCc1ccc(-n2c(C)c(COC(=O)NC)c(COC(=O)NC)c2C)cc1	2.11 µM (inactive)	2.86 µM (inactive)	2.92 µM (inactive)	6.18	4.76 µM (inactive)	1.05 µM (active)	3.81 µM (inactive)		2.84 µM (inactive)	3.54 µM (inactive)	13.9 µM (inactive)	7.73 µM (inactive)	6.46 µM (inactive)	5.66 µM (inactive)	2.7 µM (inactive)	12.7 µM (inactive)	4.16 µM (inactive)	2.64 µM (inactive)	
